This is an account of results in ChEMBL document CHEMBL1140181, “Tyrianthinic acids from Ipomoea tyrianthina and their antimycobacterial activity, cytotoxicity, and effects on the central nervous system” (2008).

Values after ≈ are worked out from the molar mass of the structure shown. Active and inactive are the calls of the source. The rule behind the calls is not given here. Bounds are passed on as bounds.

Experiment [1] can be described thus: Cytotoxicity against human UISO-SQC-1 cells. The note with it: UISO-SQC1, read-out: ED50 (the source's name). Type of experiment: functional.
Experiment [2] relates to Mus musculus. As to the kind of experiment: Anticonvulsant activity in mouse assessed as protection of pentylenetetrazole-induced seizure at 40 mg/kg, ip. Format: functional. As to conditions: route intraperitoneal.
The species entered for experiment [3] is Mus musculus. As to the kind of experiment: Increase in GABA level in mouse brain at 4 ug/mL after 90 seconds. Format: functional, organism-based.
In a further experiment the test system is OVCAR-5. As to the kind of experiment: Cytotoxicity against human OVCAR5 cells. Type of experiment: functional. As to conditions: read-out: ED50 (the source's name).
A further experiment has as its system HCT-15. The experiment can be described thus: Cytotoxicity against human HCT15 cells. Format: functional. The note with it: read-out: ED50 (the source's name).
The test system of experiment [4] is Mycobacterium tuberculosis. As to the kind of experiment: Antimicrobial activity against Mycobacterium tuberculosis H37Rv ATTC 27294 by alamar blue assay. Type of experiment: functional. In general terms: Resazurin is reduced to fluorescent resorufin, in cell work by metabolically active cells.
The subject of experiment [5] is Mus musculus. As to the kind of experiment: Anticonvulsant activity in mouse assessed as effect on pentobarbital-induced increase in hypnosis latency at 10 mg/kg, ip. On the set-up: dose 10 mg/kg. Type of experiment: functional, organism-based.
A further experiment has as its system KB. As to the kind of experiment: Cytotoxicity against human KB cells. Type of experiment: functional. The note with it: read-out: ED50 (the source's name).

For `C/C=C(\C)C(=O)O[C@H]1[C@@H]2O[C@H]3[C@H](O[C@H]4[C@H](OC(CCCCC)CCCCCCCCCC(=O)O[C@@H]1[C@H](O[C@H]1O[C@H](C)[C@H](O)[C@@H](O)[C@H]1O)[C@@H](C)O2)O[C@H](C)[C@H](O)[C@H]4O)O[C@H](CO)[C@H](O)[C@H]3O` (stereo not given in full) [TYRIANTHIN 8], the EC50 in experiment [1] is above 5 µg/mL; in the experiment with OVCAR-5, above 5 µg/mL; in the experiment on HCT-15 it was above 5 µg/mL; in the experiment with KB it was 2.2 µg/mL (≈ 2.35 µM). The Activity in the experiment with Mus musculus [2] came out at 70%. Moreover, the result in the experiment filed under Mus musculus [3] and in the experiment with Mus musculus [5] was Active. The same compound returned a minimum inhibitory concentration (MIC) in experiment [4] of 25 µg/mL (≈ 26.7 µM).

In the case of `CCCCCC1CCCCCCCCCC(=O)O[C@H]2[C@@H](OC(=O)CC)[C@H](O[C@H]3[C@H](O[C@H]4[C@H](O1)O[C@H](C)[C@H](O)[C@H]4O)O[C@H](CO)[C@H](O)[C@H]3O)O[C@H](C)[C@H]2O[C@H]1O[C@H](C)[C@H](O)[C@@H](O)[C@H]1O` (stereo not given in full) [TYRIANTHIN 9], the EC50 in experiment [1] is above 5 µg/mL; with OVCAR-5, above 5 µg/mL; in the experiment on HCT-15, above 5 µg/mL; with KB it was 2.5 µg/mL (≈ 2.74 µM). Further, the Activity in the experiment on Mus musculus [2] stood at 70%. In addition, the outcome in the experiment filed under Mus musculus [3] and in the experiment with Mus musculus [5] was Active. Moreover, the MIC in experiment [4] turned out to be 25 µg/mL (≈ 27.4 µM).

Turning to `C/C=C(\C)C(=O)O[C@H]1[C@H](O)[C@@H](O)[C@H](O[C@@H]2[C@@H](O)[C@@H](OC(=O)C(C)CC)[C@H](O[C@H]3[C@H](O[C@H]4[C@H](O[C@H](CCCCC)CCCCCCCCCC(=O)O)O[C@H](C)[C@@H](O)[C@@H]4O)O[C@H](CO)[C@@H](O)[C@@H]3O)O[C@H]2C)O[C@@H]1C` (stereo not given in full) [THYRIANTHINIC ACID II], the EC50 in experiment [1] was above 5 µg/mL; with OVCAR-5, above 5 µg/mL; in the experiment on HCT-15, above 5 µg/mL; in the experiment on KB, 2.8 µg/mL (≈ 2.69 µM). The Activity in the experiment on Mus musculus [2] was 70%. Moreover, the minimal inhibitory concentration (MIC) in experiment [4] is 25 µg/mL (≈ 24.1 µM). The outcome in the experiment on Mus musculus [5] was Active.

Turning to `CCCCC[C@H](CCCCCCCCCC(=O)O)O[C@@H]1O[C@H](C)[C@@H](O)[C@H](O)[C@H]1O[C@@H]1O[C@H](CO)[C@@H](O)[C@H](O)[C@H]1O[C@@H]1O[C@@H](C)[C@H](O[C@@H]2O[C@H](C)[C@@H](OC(=O)C(C)C(C)O)[C@H](O)[C@H]2O)[C@@H](O)[C@H]1OC(=O)C(C)CC` (stereo not given in full) [THYRIANTHINIC ACID I], the EC50 in experiment [1] is above 5 µg/mL; with OVCAR-5 it was above 5 µg/mL; in the experiment on HCT-15 it was above 5 µg/mL; with KB, 2.6 µg/mL (≈ 2.46 µM). For the same compound, in the experiment with Mus musculus [2], the Activity is 70%. This compound came in with an MIC in experiment [4] of 25 µg/mL (≈ 23.6 µM). Further, the result in the experiment with Mus musculus [5] was Active.

In general, MIC refers to the lowest concentration that inhibits growth of the organism. High values mean a less susceptible organism, low ones a more susceptible organism.
